US20200283742A1, “METHOD FOR IMPROVING ACTIVITY OF PET-DEGRADING ENZYME BY USING ADDITIVE [As Amended]” (KEIO UNIVERSITY, priority 2017, published 2020)

Experiments:
[1] = biological target: T1, PETase (Piscinibacter sakaiensis, UniProt A0A0K8P6T7); experiment: PET-hydrolyzing activity of PETase on PET film in presence of surfactant (amount of degradation product MHET by HPLC); type: biochemical, Ideonella sp. No. 201-F6 strain; details: for PET-hydrolyzing activity compared with control (FIG. 2): surfactant 0.01% (w/v), pre-incubation 30° C. 1 hour, reaction 3 hours; for Relative activity: 0.01% SDS vs control
T1 construct: made in house; host or cells: Escherichia coli BL21 Codon Plus (DE3) RIPL
T1 sequence (A0A0K8P6T7 28-290): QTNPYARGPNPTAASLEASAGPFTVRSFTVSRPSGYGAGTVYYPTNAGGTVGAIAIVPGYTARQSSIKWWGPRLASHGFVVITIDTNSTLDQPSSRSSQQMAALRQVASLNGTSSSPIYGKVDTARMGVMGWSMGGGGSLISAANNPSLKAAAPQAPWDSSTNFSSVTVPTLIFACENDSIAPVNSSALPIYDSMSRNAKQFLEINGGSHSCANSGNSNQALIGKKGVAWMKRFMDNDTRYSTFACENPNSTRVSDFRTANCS
Experimental: In addition to the optimal conditions, a surfactant was added in a concentration of 0.001 to 0.01 (w/v) %, and the activity was then measured. As surfactants, six types of surfactants, namely. [A] Sodium Cholate (SC), [B] 3-[(3-Cholamidopropyl)dimethylammonio]propanesulfonate (CHAPS), [C] Sodium dodecyl sulfate (SDS), [D] Octylphenol ethoxylate (Triton X-114), [E] Polysorbate 80 (Tween 80), [F] and Dodecyltrimethylammoniumu chloride (DTMA-Cl), were used (FIG. 1). The surfactant, a buffer and a film were added to the reaction system, and the obtained mixture was then pre-incubated at 30° C. for 1 hour. Thereafter, the concentration of the enzyme was set at 50 nM, the film area was set at 3.39 cm^2/mL, and the reaction was carried out for 3 hours.
A system, to which no surfactants were added, was used as a control.
The film area was changed, and the enzyme concentration was set at 50 nM or 500 nM, and thereafter, the activity was measured under the optimal conditions and in the presence of 0.01(v/v) % SDS. Moreover, a comparison was made regarding the case of setting the enzyme concentration at 50 nM and the amount of the degradation product (monohydroxyethyl terephthalate (MHET)) depending on the reaction time.
The amount of the degradation product was measured by reverse phase high performance liquid chromatography (HPLC) in accordance with the method described in International Publication WO 2015/025861.
The pre-incubation time after addition of SDS was set at 0 or 1 hour, the reaction time was set at 1 hour, the enzyme concentration was set at […], and the film area was set at 3.39 cm^2/mL. Thereafter, a comparison was made in terms of the activity under the optimal conditions.
The enzyme concentration was set at 500 nM, the SDS concentration and the film area were changed, and the activity under the optimal conditions was then measured.

[2] = biological target: T1, PETase; experiment: pNPB (p-nitrophenyl-butyrate)-hydrolyzing activity; type: biochemical, Ideonella sp. No. 201-F6 strain; details: 0.01 (w/v) % SDS; enzyme 250 nM; substrate pNPB
Experimental: In the following examples, the activity of PETase (PET-hydrolyzing activity) was measured using, as indicators, the amount of a degradation product and pNPB (p-nitrophenyl-butyrate)-hydrolyzing activity. Hereafter, a method of measuring pNPB (p-nitrophenyl-butyrate)-hydrolyzing activity is described.
pNPB used as an artificial substrate in the measurement of esterase activity is hydrolyzed into 1-butanoic acid and p-nitrophenol (pNP).
The pNPB-hydrolyzing activity immediately after purification of the enzyme was measured. The composition of a reaction solution is shown in Table 1. pNPB was dissolved in dimethyl sulfoxide (DMSO). The enzyme was mixed with a buffer, and the obtained mixture was then incubated at 30° C. for 30 minutes. Thereafter, the substrate was added to the reaction mixture, and a change in the absorbance at 425 nm for 1 minute was measured three times. The inclination (ΔAbs) of the measured absorbance change was applied to the following equation to obtain catalyst turnover frequency.
TOF: Catalyst turnover frequency; ε: Molar absorption coefficient; c: Enzyme concentration; 1: Thickness of solution layer; Δt: Reaction time.
The p-nitrophenyl-butyrate(pNPB)-hydrolyzing activity was measured in the presence of 0.01 (w/v) % SDS, in addition to the conditions shown in Table 1.

[3] = biological target: T1, PETase; experiment: Amount of enzyme adsorbed on PET film (SDS-PAGE); design: species or system Ideonella sp. No. 201-F6 strain; details: SDS 0.01 to 0.04 (w/v) %; enzyme 500 nM; pre-incubation 1 hour; reaction 3 hours; film area 1.13 cm^2/mL
Experimental: The amount of the enzyme adsorbed on the film was observed under conditions in which the activity was changed by addition of a surfactant. SDS was added to the reaction system to result in a concentration of 0.01 (w/v) % to 0.04 (w/v) %, in addition to conditions of an enzyme concentration of 500 nM, a pre-incubation time of 1 hour, a reaction time of 3 hours, and a film area of 1.13 cm^2/mL. After completion of the reaction, the film was removed using tweezers, and was then rinsed with distilled water. The film was placed on the lid of a 1.5-mL tube, and thereafter, 10 μL of an SDS-PAGE sample buffer was added thereto. After that, the resultant was left at rest for 10 minutes, and was then centrifuged. The thus centrifuged solution was subjected to SDS-PAGE. Moreover, in addition to the conditions without addition of surfactants, a comparison was made with conditions including addition of DTMA-Cl that was a cationic surfactant.

[4] = enzyme 50 nM, film area 3.39 cm^2/mL
[5] = enzyme 50 nM, film area 1.13 cm^2/mL
[6] = enzyme 50 nM, film area 2.26 cm^2/mL
[7] = enzyme 50 nM, film area 5.65 cm^2/mL
[8] = enzyme 50 nM, film area 9.04 cm^2/mL
[9] = enzyme 50 nM, film area 11.3 cm^2/mL
[10] = enzyme 500 nM, film area 1.13 cm^2/mL
[11] = enzyme 500 nM, film area 2.26 cm^2/mL
[12] = enzyme 500 nM, film area 3.39 cm^2/mL
[13] = enzyme 500 nM, film area 5.65 cm^2/mL
[14] = enzyme 500 nM, film area 9.04 cm^2/mL
[15] = enzyme 500 nM, film area 11.3 cm^2/mL

CCCCCCCCCCCC[N+](C)(C)C.[Cl-] [DTMA-Cl, Dodecyltrimethylammoniumu chloride]
PET-hydrolyzing activity compared with control (FIG. 2) [1, 4]: the activity was significantly decreased

CCCCCCCCCCCCOS(=O)(=O)[O-].[Na+] [SDS, Sodium dodecyl sulfate]
Relative activity [1, 5]: 2.47 fold
Relative activity [1, 6]: 1.99 fold
Relative activity [1, 4]: 1.86 fold
Relative activity [1, 7]: 1.75 fold
Relative activity [1, 8]: 1.99 fold
Relative activity [1, 9]: 1.72 fold
Relative activity [1, 10]: 2170 fold
Relative activity [1, 11]: 50.6 fold
Relative activity [1, 12]: 6.01 fold
Relative activity [1, 13]: 3.58 fold
Relative activity [1, 14]: 3.32 fold
Relative activity [1, 15]: 3.11 fold
Activity relative to control ([1]; addition of SDS, enzyme 50 nM, film area 1.13 cm^2/mL): approximately 2.5 times
Activity relative to control ([1]; addition of SDS, enzyme 50 nM, film area 11.3 cm^2/mL): approximately 1.7 times
PET-hydrolyzing activity versus control ([1]; addition of SDS, enzyme 500 nM): the activity was exhibited, although almost no activity was exhibited in the case of the control
Activity upon addition of 0.01% SDS [1, 5]: 793 h⁻¹
Activity upon addition of 0.01% SDS [1, 6]: 901 h⁻¹
Activity upon addition of 0.01% SDS [1, 4]: 1020 h⁻¹
Activity upon addition of 0.01% SDS [1, 7]: 1270 h⁻¹
Activity upon addition of 0.01% SDS [1, 8]: 1680 h⁻¹
Activity upon addition of 0.01% SDS [1, 9]: 1910 h⁻¹
Activity upon addition of 0.01% SDS [1, 10]: 154 h⁻¹
Activity upon addition of 0.01% SDS [1, 11]: 260 h⁻¹
Activity upon addition of 0.01% SDS [1, 12]: 297 h⁻¹
Activity upon addition of 0.01% SDS [1, 13]: 451 h⁻¹
Activity upon addition of 0.01% SDS [1, 14]: 660 h⁻¹
Activity upon addition of 0.01% SDS [1, 15]: 743 h⁻¹
Optimal SDS concentration (FIG. 6) ([1]; enzyme 500 nM, film area of up to 5.65 cm^2/mL): 0.02 (w/v) %
Optimal SDS concentration (FIG. 6) ([1]; enzyme 500 nM, film area of up to 11.3 cm^2/mL): 0.03 (w/v) %
Change over time in amount of PET degradation product / enzyme stability (FIG. 3) ([1]; in presence of SDS, enzyme 50 nM, reaction of 3 hours): almost no activity decrease took place
Amount of degradation product depending on pre-incubation time (FIG. 5) ([1]; pre-incubation after SDS addition 0 or 1 hour, reaction 1 hour, enzyme 50 nM, film area 3.39 cm^2/mL): the amount of a degradation product was changed depending on the pre-incubation time
PET-hydrolyzing activity compared with control (FIG. 2) [1, 4]: approximately two times greater than the activity of the control
Reduction of pNPB-hydrolyzing activity after addition of SDS (FIG. 4) [2]: approximately 5%
Amount of enzyme (protein) adsorbed on film (FIG. 7) [3]: adsorption of a large amount of protein was confirmed

Polysorbate 80 [Tween 80]
PET-hydrolyzing activity compared with control (FIG. 2) [1, 4]: the activity was found with the surfactants other than Tween 80 and DTMA-Cl
